# Results reported in patent publication US20060223996A1, “IL-12 modulatory compounds” (Synta Pharmaceuticals Corp., priority 2004, published 2006).
# Test system: IL-12
# Experiment: Human in vitro assay: inhibition of IL-12 production in IFNγ/LPS- or IFNγ/SAC-stimulated human PBMC or THP-1 cells (ELISA)
# Format: cell-based
# Conditions: read-out: IC50 Range (representative in vitro IC50 data)
# Outline: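 Sandwich ELISA for IL-12 (p70, p40) on supernatants collected 18 h after stimulation gave IC50 values; MTS monitored viability. THP-1 cells: IFNγ 100 U/mL priming 22 h, SAC 0.025%. PBMC: IFNγ 30 U/mL for 22 h plus LPS 1 μg/mL, or IFNγ 100 U/mL plus SAC 0.01%. Final DMSO 0.25%.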
row,IC50,SMILES
1,< 1 µM,"O=C(Nc1cccc(C(F)(F)F)c1)Nc1cc(N2CCOCC2)nc(OCCN2CCOCC2)n1 [Compound 121, 1-[6-Morpholin-4-yl-2-(2-morpholin-4-yl-ethoxy)-pyrimidin-4-yl]-3-(3-trifluoromethyl-phenyl)-urea]"
2,≥ 1 µM,"O=C(Nc1cccc(Br)c1)c1cc(OCCN2CCOCC2)nc(N2CCOCC2)n1 [Compound 47, 2-Morpholin-4-yl-6-(2-morpholin-4-yl-ethoxy)-pyrimidine-4-carboxylic acid (3-bromo-phenyl)-amide]"
3,≥ 1 µM,"O=C(Nc1cccc(-n2ccnc2)c1)c1cc(OCCN2CCOCC2)nc(N2CCOCC2)n1 [Compound 305, 2-Morpholin-4-yl-6-(2-morpholin-4-yl-ethoxy)-pyrimidine-4-carboxylic acid (3-imidazol-1-yl-phenyl)-amide]"
4,< 1 µM,"Cc1[nH]c2ccc(NC(=O)c3cc(NCCN(C)C)nc(N4CCOCC4)n3)cc2c1C [Compound 95, 6-(2-Dimethylamino-ethylamino)-2-morpholin-4-yl-pyrimidine-4-carboxylic acid (2,3-dimethyl-1H-indol-5-yl)-amide]"
5,≥ 1 µM,"O=C(Nc1cccnc1)c1cc(OCCN2CCOCC2)nc(N2CCOCC2)n1 [Compound 292, 2-Morpholin-4-yl-6-(2-morpholin-4-yl-ethoxy)-pyrimidine-4-carboxylic acid pyridin-3-ylamide]"
6,< 1 µM,"Cc1ccc(NC(=O)c2cc(OCCN3CCOCC3)nc(N3CCOCC3)n2)cc1C [Compound 23, 2-Morpholin-4-yl-6-(2-morpholin-4-yl-ethoxy)-pyrimidine-4-carboxylic acid (3,4-dimethyl-phenyl)-amide]"
7,≥ 1 µM,"Cc1ccc(N)c(NC(=O)c2cc(OCCN3CCOCC3)nc(N3CCOCC3)n2)c1 [Compound 272, 2-Morpholin-4-yl-6-(2-morpholin-4-yl-ethoxy)-pyrimidine-4-carboxylic acid (2-amino-5-methyl-phenyl)-amide]"
8,≥ 1 µM,"Cc1cc(NC(=O)c2cc(OCCN3CCOCC3)nc(N3CCOCC3)n2)no1 [Compound 48, 2-Morpholin-4-yl-6-(2-morpholin-4-yl-ethoxy)-pyrimidine-4-carboxylic acid (5-methyl-isoxazol-3-yl)-amide]"
9,≥ 1 µM,"CC1CCc2ccc(NC(=O)c3cc(OCCN4CCOCC4)nc(N4CCOCC4)n3)cc2N1 (centres unmarked) [Compound 299, 2-Morpholin-4-yl-6-(2-morpholin-4-yl-ethoxy)-pyrimidine-4-carboxylic acid (2-methyl-1,2,3,4-tetrahydro-quinolin-7-yl)-amide]"
10,< 1 µM,"Cc1[nH]c2ccc(NC(=O)c3cc(NCC(N)=O)nc(N4CCOCC4)n3)cc2c1C [Compound 104, 6-(Carbamoylmethyl-amino)-2-morpholin-4-yl-pyrimidine-4-carboxylic acid (2,3-dimethyl-1H-indol-5-yl)-amide]"
11,< 1 µM,"Cc1[nH]c2ccc(NC(=O)c3cc(NCC(=O)N4CCCCC4)nc(N4CCOCC4)n3)cc2c1C [Compound 109, 2-Morpholin-4-yl-6-(2-oxo-2-piperidin-1-yl-ethylamino)-pyrimidine-4-carboxylic acid (2,3-dimethyl-1H-indol-5-yl)-amide]"
12,< 1 µM,"Cc1ccc(NC(=O)c2cc(OCCN3CCOCC3)nc(N3CCOCC3)n2)cc1N(C)C [Compound 290, 2-Morpholin-4-yl-6-(2-morpholin-4-yl-ethoxy)-pyrimidine-4-carboxylic acid (3-dimethylamino-4-methyl-phenyl)-amide]"
13,≥ 1 µM,"O=C(Nc1ccc(Nc2ccccc2)cc1)c1cc(OCCN2CCOCC2)nc(N2CCOCC2)n1 [Compound 284, 2-Morpholin-4-yl-6-(2-morpholin-4-yl-ethoxy)-pyrimidine-4-carboxylic acid (4-phenylamino-phenyl)-amide]"
14,≥ 1 µM,"O=C(Nc1ccc2[nH]c(C(F)(F)F)nc2c1)c1cc(NCCN2CCOCC2)nc(N2CCOCC2)n1 [Compound 190, 2-morpholino-6-(2-morpholinoethylamino)-N-(2-(trifluoromethyl)-1H-benzo[d]imidazol-5-yl)pyrimidine-4-carboxamide]"

# Continued, compound first:
row,SMILES,IC50
1,"CN(C)c1cccc(NC(=O)c2cc(N(C)CC(=O)N3CCCCC3)nc(N3CCOCC3)n2)c1 [Compound 116, 6-[Methyl-(2-oxo-2-piperidin-1-yl-ethyl)-amino]-2-morpholin-4-yl-pyrimidine-4-carboxylic acid (3-dimethylamino-phenyl)-amide]",< 1 µM
2,"O=C(Nc1cccc2ncccc12)c1cc(OCCc2ccccn2)nc(N2CCOCC2)n1 [Compound 39, 2-Morpholin-4-yl-6-(2-pyridin-2-yl-ethoxy)-pyrimidine-4-carboxylic acid quinolin-5-ylamide]",≥ 1 µM
3,"Cc1cccc(NC(=O)Nc2cc(N3CCOCC3)nc(OCCc3ccccn3)n2)c1 [Compound 68, 1-[6-Morpholin-4-yl-2-(2-pyridin-2-yl-ethoxy)-pyrimidin-4-yl]-3-m-tolyl-urea]",≥ 1 µM
4,"O=C(Nc1cccc(-n2ccnc2)c1)Nc1cc(OCCN2CCOCC2)nc(N2CCOCC2)n1 [Compound 328, 1-(3-Imidazol-1-yl-phenyl)-3-[2-morpholin-4-yl-6-(2-morpholin-4-yl-ethoxy)-pyrimidin-4-yl]-urea]",≥ 1 µM
5,"COCCNC(=O)CNc1cc(C(=O)Nc2ccc3[nH]c(C)c(C)c3c2)nc(N2CCOCC2)n1 [Compound 98, 6-{[(2-Methoxy-ethylcarbamoyl)-methyl]-amino}-2-morpholin-4-yl-pyrimidine-4-carboxylic acid (2,3-dimethyl-1H-indol-5-yl)-amide]",< 1 µM
6,"COCCN(C)c1cc(C(=O)Nc2cccc(S(C)(=O)=O)c2)nc(N2CCOCC2)n1 [Compound 231, 6-[(2-Methoxy-ethyl)-methyl-amino]-2-morpholin-4-yl-pyrimidine-4-carboxylic acid (3-methanesulfonyl-phenyl)-amide]",≥ 1 µM
7,"O=C(Nc1cccc(O)c1)C(=O)Nc1cc(N2CCOCC2)nc(OCCc2ccccn2)n1 [Compound 87, N-(3-Hydroxy-phenyl)-N′-[6-morpholin-4-yl-2-(2-pyridin-2-yl-ethoxy)-pyrimidin-4-yl]-oxalamide]",≥ 1 µM
8,"COC(=O)CNc1cc(C(=O)Nc2ccc3[nH]c(C)c(C)c3c2)nc(N2CCOCC2)n1 [Compound 97, [6-(2,3-Dimethyl-1H-indol-5-ylcarbamoyl)-2-morpholin-4-yl-pyrimidin-4-ylamino]-acetic acid methyl ester]",< 1 µM
9,O=C(Nc1cccc(Br)c1)Nc1cc(N2CCOCC2)nc(OCCN2CCOCC2)n1 [Compound 118],< 1 µM
10,"Cc1[nH]c2ccc(NC(=O)c3cc(N4CCCCC4)cc(N4CCOCC4)n3)cc2c1C [Compound 182, 6′-Morpholin-4-yl-3,4,5,6-tetrahydro-2H-[1,4′]bipyridinyl-2′-carboxylic acid (2,3-dimethyl-1H-indol-5-yl)-amide]",< 1 µM
11,"CN(C)c1cccc(NC(=O)c2cc(OCCO)nc(N3CCOCC3)n2)c1 [Compound 309, 6-(2-Hydroxy-ethoxy)-2-morpholin-4-yl-pyrimidine-4-carboxylic acid (3-dimethylamino-phenyl)-amide]",< 1 µM
12,"Cc1c[nH]c2ccc(NC(=O)c3cc(N4CCC(O)CC4)nc(N4CCOCC4)n3)cc12 [Compound 187, 6-(4-Hydroxy-piperidin-1-yl)-2-morpholin-4-yl-pyrimidine-4-carboxylic acid (3-methyl-1H-indol-5-yl)-amide]",< 1 µM
13,"Cc1cccc(NNC(=O)c2cc(OCCc3ccccn3)nc(N3CCOCC3)n2)c1 [Compound 79, 2-Morpholin-4-yl-6-(2-pyridin-2-yl-ethoxy)-pyrimidine-4-carboxylic acid N′-m-tolyl-hydrazide]",≥ 1 µM
14,"Cc1cc(NC(=O)Nc2ccc3[nH]c(C)c(C)c3c2)nc(N2CCOCC2)n1 [Compound 263, 1-(2,3-dimethyl-1H-indol-5-yl)-3-(6-methyl-2-morpholinopyrimidin-4-yl)urea]",< 1 µM
15,"O=C(Nc1cc(OCCc2ccccn2)nc(N2CCOCC2)n1)c1ccc2[nH]ccc2c1 [Compound 73, 1H-Indole-5-carboxylic acid [2-morpholin-4-yl-6-(2-pyridin-2-yl-ethoxy)-pyrimidin-4-yl]-amide]",≥ 1 µM
16,"COCCN(C)c1cc(C(=O)Nc2cccc(C(=O)c3ccccc3)c2)nc(N2CCOCC2)n1 [Compound 232, 6-[(2-Methoxy-ethyl)-methyl-amino]-2-morpholin-4-yl-pyrimidine-4-carboxylic acid (3-benzoyl-phenyl)-amide]",≥ 1 µM
17,"CC(=O)N1CCN(c2cc(NC(=O)Nc3ccc4[nH]c(C)c(C)c4c3)nc(N3CCOCC3)n2)CC1 [Compound 264, 1-(6-(4-acetylpiperazin-1-yl)-2-morpholinopyrimidin-4-yl)-3-(2,3-dimethyl-1H-indol-5-yl)urea]",< 1 µM
18,"O=C(Nc1cc(OCCN2CCOCC2)nc(N2CCOCC2)n1)Nc1cc(-c2ccco2)n[nH]1 [Compound 144, 1-(5-Furan-2-yl-2H-pyrazol-3-yl)-3-[2-morpholin-4-yl-6-(2-morpholin-4-yl-ethoxy)-pyrimidin-4-yl]-urea]",≥ 1 µM
19,"Cc1[nH]c2ccc(NC(=O)c3cc(NCC(=O)NC4CCCC4)nc(N4CCOCC4)n3)cc2c1C [Compound 110, 6-(Cyclopentylcarbamoylmethyl-amino)-2-morpholin-4-yl-pyrimidine-4-carboxylic acid (2,3-dimethyl-1H-indol-5-yl)-amide]",< 1 µM
20,"Cc1[nH]c2ccc(NC(=O)c3cc(N4CCN(c5ccccn5)CC4)nc(N4CCOCC4)n3)cc2c1C [Compound 90, 2-Morpholin-4-yl-6-(4-pyridin-2-yl-piperazin-1-yl)-pyrimidine-4-carboxylic acid (2,3-dimethyl-1H-indol-5-yl)-amide]",< 1 µM
21,"Cc1ccc2nc(NC(=O)c3cc(OCCc4ccccn4)nc(N4CCOCC4)n3)sc2c1 [Compound 32, 2-Morpholin-4-yl-6-(2-pyridin-2-yl-ethoxy)-pyrimidine-4-carboxylic acid (6-methyl-benzothiazol-2-yl)-amide]",≥ 1 µM
